Assay [1] in a line: Inhibition of Shh-induced hedgehog signalling pathway in mouse MEF cells expressing Gli-Luc reporter gene assessed as reduction in Gli1 transcription activity incubated for 24 hrs in presence of mouse shh stimulation by dual luciferase Assay. It is filed as cell-based. A general note: A reporter such as luciferase makes a cellular process visible.
Assay [2] in a line: Inhibition of Shh-induced hedgehog signalling pathway in mouse NIH/3T3 cells expressing Gli-Luc reporter gene assessed as reduction in Gli1 transcription activity incubated for 24 hrs in presence of mouse shh stimulation by dual luciferase Assay. It counts as cell-based. The settings on record: NIH3T3, 24 h.

By IC50 is commonly meant the midpoint of a concentration-inhibition curve. As to `CC1=C2C[C@H]3[C@@H](CC=C4C[C@@H](O)CC[C@@]43C)[C@@H]2CC[C@]12O[C@@H]1C[C@H](C)CN[C@H]1[C@H]2C` [CYCLOPAMINE], the IC50 in assay [1] was determined as 110 nM; in assay [2] it was 270 nM.

Consider `CC1=C2C[C@H]3[C@@H](CC=C4C[C@@H](O)CC[C@@]43C)[C@@H]2CC[C@]12O[C@@H]1[C@H](O)[C@H](C)CN[C@H]1[C@H]2C`, for which the IC50 in assay [1] turned out to be 210 nM; in assay [2] it was 150 nM.

Take `C[C@@H]1CN[C@H]2[C@@H](C)[C@@]3(CC[C@@H]4C(=C3CO)C[C@H]3[C@H]4CC=C4C[C@@H](O)CC[C@@]43C)O[C@@H]2C1`: the values for the IC50 in assay [1] and in assay [2] were 2800 nM and 2080 nM, respectively.

Values taken from ChEMBL document CHEMBL5252645, “Hydroxylated cyclopamine analogues from Veratrum californicum and their hedgehog pathway inhibiting activity” (Bioorg Med Chem, 2023).
